Consider three molecules from ChEMBL document CHEMBL5653631, “A Potent and Selective ULK1 Inhibitor Suppresses Autophagy and Sensitizes Cancer Cells to Nutrient Stress” (iScience, 2018).

Each structure is given as a SMILES string.

In general, inhibition refers to how much of the control response was suppressed.

Test [1] has as its target Serine/threonine-protein kinase 24 (Homo sapiens) (UniProt Q9Y6E0). The experiment in a line: Inhibition of human recombinant MST3 at 40 nM in presence of ATP by radiometric assay relative to control.
Test [2] concerns the target Fibroblast growth factor receptor 1 (Homo sapiens) (UniProt P11362). The experiment in a line: Inhibition of human recombinant FGFR1 at 40 nM in presence of ATP by radiometric assay relative to control.
The target of test [3] is T1, Ephrin type-A receptor 1 (Homo sapiens) (UniProt P21709).
T1 sequence (whole entry): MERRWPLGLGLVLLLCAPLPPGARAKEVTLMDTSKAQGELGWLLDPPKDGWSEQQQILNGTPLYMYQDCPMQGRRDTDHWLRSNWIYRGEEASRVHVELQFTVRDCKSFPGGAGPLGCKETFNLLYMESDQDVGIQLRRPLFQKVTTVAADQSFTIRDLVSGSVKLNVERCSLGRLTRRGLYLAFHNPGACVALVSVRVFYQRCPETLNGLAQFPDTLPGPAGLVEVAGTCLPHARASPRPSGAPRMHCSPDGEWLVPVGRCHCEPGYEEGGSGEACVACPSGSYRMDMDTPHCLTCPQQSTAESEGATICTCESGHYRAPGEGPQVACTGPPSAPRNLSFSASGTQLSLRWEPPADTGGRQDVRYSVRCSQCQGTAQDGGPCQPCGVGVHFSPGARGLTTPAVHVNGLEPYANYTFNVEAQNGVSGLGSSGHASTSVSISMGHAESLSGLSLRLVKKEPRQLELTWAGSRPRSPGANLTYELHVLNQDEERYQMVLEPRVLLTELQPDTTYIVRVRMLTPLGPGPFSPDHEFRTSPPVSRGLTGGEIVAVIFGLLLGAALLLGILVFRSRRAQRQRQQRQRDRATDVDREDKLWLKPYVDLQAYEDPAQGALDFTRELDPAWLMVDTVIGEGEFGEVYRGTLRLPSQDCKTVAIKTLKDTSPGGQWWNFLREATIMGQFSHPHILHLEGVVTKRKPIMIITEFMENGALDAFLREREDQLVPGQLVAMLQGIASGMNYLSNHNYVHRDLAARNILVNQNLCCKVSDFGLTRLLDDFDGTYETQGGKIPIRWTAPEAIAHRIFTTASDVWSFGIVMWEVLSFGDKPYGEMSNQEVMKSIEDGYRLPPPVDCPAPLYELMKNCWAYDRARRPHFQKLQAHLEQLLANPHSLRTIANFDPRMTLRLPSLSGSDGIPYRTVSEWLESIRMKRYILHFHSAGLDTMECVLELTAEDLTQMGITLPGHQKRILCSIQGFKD
The experiment in a line: Inhibition of human recombinant EphA1 at 40 nM in presence of ATP by radiometric assay relative to control.

The target in test [4] is Serine/threonine-protein kinase 25 (Homo sapiens) (UniProt O00506). The experiment in a line: Inhibition of human recombinant YSK1 at 500 nM related to control ULK1.
Test [5] deals with T2, Ephrin type-A receptor 8 (Homo sapiens) (UniProt P29322).
T2 sequence (whole entry): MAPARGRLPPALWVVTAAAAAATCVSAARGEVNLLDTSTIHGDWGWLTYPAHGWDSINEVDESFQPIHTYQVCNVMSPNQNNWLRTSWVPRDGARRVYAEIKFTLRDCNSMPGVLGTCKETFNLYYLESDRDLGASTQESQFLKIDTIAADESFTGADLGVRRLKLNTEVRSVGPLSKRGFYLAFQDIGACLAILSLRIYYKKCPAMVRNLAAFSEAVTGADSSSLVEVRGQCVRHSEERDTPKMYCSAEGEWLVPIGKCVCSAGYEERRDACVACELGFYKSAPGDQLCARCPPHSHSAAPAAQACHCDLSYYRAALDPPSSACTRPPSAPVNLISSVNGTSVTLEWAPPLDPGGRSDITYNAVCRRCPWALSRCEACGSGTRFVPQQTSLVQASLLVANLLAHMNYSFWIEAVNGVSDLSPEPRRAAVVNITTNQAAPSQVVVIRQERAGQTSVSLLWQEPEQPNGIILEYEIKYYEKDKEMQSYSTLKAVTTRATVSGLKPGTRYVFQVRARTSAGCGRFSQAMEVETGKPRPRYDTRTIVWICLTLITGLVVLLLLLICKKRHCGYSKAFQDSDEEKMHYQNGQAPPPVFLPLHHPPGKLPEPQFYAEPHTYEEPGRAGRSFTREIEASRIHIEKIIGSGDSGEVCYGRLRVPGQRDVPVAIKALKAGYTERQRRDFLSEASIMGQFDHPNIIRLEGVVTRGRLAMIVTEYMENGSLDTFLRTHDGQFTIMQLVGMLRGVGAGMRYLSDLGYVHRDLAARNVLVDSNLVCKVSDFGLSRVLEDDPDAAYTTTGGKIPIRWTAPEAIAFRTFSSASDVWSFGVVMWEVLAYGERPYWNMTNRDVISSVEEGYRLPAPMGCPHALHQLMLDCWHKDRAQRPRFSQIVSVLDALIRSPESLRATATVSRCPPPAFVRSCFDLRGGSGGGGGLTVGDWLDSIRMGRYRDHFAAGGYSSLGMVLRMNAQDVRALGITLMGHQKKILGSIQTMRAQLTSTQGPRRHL
Briefly: Inhibition of human recombinant EphA8 at 500 nM related to control ULK1.

For test [6], the target named is T3, Serine/threonine-protein kinase NLK (Homo sapiens) (UniProt Q9UBE8).
T3 sequence (whole entry): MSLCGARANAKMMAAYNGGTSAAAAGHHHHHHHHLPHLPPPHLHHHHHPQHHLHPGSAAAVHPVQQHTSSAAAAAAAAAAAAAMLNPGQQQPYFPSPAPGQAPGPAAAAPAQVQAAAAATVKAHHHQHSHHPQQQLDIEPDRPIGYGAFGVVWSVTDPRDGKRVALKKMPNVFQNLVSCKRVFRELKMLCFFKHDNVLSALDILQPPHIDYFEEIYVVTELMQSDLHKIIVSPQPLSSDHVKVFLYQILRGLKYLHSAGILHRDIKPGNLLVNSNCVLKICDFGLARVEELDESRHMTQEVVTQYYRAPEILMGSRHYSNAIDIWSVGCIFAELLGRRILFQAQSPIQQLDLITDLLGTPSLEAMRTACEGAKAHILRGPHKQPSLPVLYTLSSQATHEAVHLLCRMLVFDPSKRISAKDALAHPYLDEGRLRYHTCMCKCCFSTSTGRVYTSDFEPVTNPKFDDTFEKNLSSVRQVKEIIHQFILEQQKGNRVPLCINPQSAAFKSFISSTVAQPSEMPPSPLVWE
The experiment in a line: Inhibition of human recombinant NLK at 500 nM in presence of ATP by radiometric assay relative to control.

Test [7] is filed under the species Homo sapiens. The experiment in a line: Inhibition of human recombinant p70S6K at 15 nM related to control ULK1.
Test [8] concerns the target Protein kinase C beta type (Homo sapiens) (UniProt P05771). Briefly: Inhibition of human recombinant PKCb at 15 nM in presence of ATP by radiometric assay relative to control.

Sequence of Fibroblast growth factor receptor 1 (Homo sapiens) (P11362 22-822 limits assumed): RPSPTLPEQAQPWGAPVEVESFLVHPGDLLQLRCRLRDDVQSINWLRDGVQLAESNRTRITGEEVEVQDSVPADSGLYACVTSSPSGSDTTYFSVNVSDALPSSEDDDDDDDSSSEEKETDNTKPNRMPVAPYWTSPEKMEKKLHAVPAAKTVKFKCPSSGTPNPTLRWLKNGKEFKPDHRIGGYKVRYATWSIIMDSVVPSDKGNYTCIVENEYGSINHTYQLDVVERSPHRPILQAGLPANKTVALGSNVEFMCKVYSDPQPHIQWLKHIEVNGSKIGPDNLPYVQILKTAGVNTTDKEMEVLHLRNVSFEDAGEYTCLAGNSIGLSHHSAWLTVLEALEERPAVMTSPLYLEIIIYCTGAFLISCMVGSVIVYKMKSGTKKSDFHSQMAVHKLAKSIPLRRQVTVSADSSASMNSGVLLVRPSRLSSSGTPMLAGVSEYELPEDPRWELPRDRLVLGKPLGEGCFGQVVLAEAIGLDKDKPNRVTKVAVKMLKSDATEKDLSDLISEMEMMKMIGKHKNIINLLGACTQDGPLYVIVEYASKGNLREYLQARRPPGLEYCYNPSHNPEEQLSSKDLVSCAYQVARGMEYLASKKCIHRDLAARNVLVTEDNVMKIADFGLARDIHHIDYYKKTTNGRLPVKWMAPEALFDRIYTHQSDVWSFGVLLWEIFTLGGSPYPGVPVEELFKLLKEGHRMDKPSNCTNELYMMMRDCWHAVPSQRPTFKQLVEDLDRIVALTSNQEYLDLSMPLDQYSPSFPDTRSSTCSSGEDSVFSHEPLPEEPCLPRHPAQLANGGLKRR
Sequence of Serine/threonine-protein kinase 25 (Homo sapiens) (O00506 whole entry, looked up): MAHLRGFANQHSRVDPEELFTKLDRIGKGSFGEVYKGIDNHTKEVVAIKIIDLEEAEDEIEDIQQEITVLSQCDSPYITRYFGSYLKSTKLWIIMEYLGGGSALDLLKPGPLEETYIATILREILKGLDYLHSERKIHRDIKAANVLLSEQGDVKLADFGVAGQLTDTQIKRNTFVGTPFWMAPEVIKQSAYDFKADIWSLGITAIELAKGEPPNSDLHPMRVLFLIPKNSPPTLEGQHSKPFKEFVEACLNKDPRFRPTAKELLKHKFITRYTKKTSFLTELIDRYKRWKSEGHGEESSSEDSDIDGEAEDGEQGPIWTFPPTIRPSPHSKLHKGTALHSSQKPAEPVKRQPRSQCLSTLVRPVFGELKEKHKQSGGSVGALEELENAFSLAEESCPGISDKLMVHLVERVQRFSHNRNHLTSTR
Sequence of Protein kinase C beta type (Homo sapiens) (P05771 2-671 limits assumed): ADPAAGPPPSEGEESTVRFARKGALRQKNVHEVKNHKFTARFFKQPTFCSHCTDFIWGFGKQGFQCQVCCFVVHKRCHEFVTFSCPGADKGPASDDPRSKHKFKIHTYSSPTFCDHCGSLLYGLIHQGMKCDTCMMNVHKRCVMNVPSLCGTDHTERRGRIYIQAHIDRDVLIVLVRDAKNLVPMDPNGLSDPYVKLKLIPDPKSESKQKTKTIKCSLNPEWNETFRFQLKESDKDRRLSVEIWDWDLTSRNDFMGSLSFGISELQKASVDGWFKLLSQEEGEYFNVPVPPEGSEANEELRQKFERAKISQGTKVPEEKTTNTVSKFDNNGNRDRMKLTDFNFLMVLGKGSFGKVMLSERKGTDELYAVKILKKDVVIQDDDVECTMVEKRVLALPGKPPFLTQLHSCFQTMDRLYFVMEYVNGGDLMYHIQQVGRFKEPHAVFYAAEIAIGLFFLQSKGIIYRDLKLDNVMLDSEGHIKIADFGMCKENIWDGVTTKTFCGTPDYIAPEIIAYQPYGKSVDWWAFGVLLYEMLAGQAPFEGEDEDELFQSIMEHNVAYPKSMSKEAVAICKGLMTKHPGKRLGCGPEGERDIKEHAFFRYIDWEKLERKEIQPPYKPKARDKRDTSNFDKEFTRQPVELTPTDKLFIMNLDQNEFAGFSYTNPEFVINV
Sequence of Serine/threonine-protein kinase 24 (Homo sapiens) (Q9Y6E0 whole entry, looked up): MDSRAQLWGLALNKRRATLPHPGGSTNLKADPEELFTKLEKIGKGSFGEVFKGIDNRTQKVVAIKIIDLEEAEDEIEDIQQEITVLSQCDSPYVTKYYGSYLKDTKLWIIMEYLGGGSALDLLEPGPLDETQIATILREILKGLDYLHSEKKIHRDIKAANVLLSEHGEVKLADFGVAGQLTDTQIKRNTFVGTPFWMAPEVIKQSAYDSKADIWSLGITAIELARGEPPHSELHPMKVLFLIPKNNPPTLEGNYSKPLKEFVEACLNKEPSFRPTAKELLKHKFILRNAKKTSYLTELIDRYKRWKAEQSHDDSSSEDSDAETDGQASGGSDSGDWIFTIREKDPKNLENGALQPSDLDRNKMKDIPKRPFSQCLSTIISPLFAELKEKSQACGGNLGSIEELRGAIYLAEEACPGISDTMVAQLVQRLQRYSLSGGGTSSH

For the molecule `O=C(N[C@@H](C1CC1)C(F)(F)F)c1cc(-c2cnn3cc(-c4ccc(F)cc4)cnc23)cs1`, the inhibition in test [1] is 20%; in test [2], 0%; in test [3], 0%.

Turning to `CNC(=O)c1ccccc1Oc1nc(Nc2cc(OC)c(OC)c(OC)c2)ncc1Br`, the figures for the fold change (FC) in test [4] and in test [5] were 0.16 and 0.03, respectively. Also, the inhibition in test [6] is 4%.

Consider `CC(C)[C@H](NC(=O)c1cc(-c2cnn3cc(-c4ccc(OCCN5CCCCC5)cc4)cnc23)cs1)C(F)(F)F`, for which, in test [7], the fold change (FC) is 0.19. Moreover, in test [8], the inhibition amounted to 0%.
